BigSolDB 2.1

COC(=O)Nc1nc2ccc(Sc3ccccc3)cc2[nH]1
solubility (mole fraction)
Conditions | in 1,4-dioxane | in acetone | in acetonitrile | in ethanol | in ethyl acetate | in isopropanol | in methanol | in n-butanol | in n-propanol
273.15 K | – | 0.000154 | 1.31e-05 | 4.24e-05 | 0.000266 | 2.01e-05 | 3.69e-05 | 7.43e-05 | 5.94e-05
278.15 K | – | 0.000167 | 1.53e-05 | 4.62e-05 | 0.000308 | 2.39e-05 | 3.99e-05 | 8.03e-05 | 6.58e-05
283.15 K | – | 0.00018 | 1.79e-05 | 5.02e-05 | 0.000361 | 2.8e-05 | 4.28e-05 | 8.71e-05 | 7.33e-05
288.15 K | 0.0011 | 0.000194 | 2.06e-05 | 5.44e-05 | 0.000415 | 3.24e-05 | 4.57e-05 | 9.47e-05 | 8.16e-05
293.15 K | 0.00127 | 0.000209 | 2.36e-05 | 5.92e-05 | 0.000468 | 3.65e-05 | 4.86e-05 | 0.000102 | 8.97e-05
298.15 K | 0.00145 | 0.000225 | 2.68e-05 | 6.41e-05 | 0.000533 | 4.12e-05 | 5.14e-05 | 0.000111 | 9.97e-05
303.15 K | 0.00166 | 0.000241 | 3.06e-05 | 6.99e-05 | 0.000601 | 4.62e-05 | 5.54e-05 | 0.00012 | 0.000111
308.15 K | 0.00189 | 0.00026 | 3.47e-05 | 7.62e-05 | 0.000684 | 5.2e-05 | 5.94e-05 | 0.000132 | 0.000123
313.15 K | 0.00214 | 0.00028 | 3.99e-05 | 8.36e-05 | 0.000768 | 5.82e-05 | 6.33e-05 | 0.000143 | 0.000137
